Read-outs that look alike come from different tables or passages of the source.
Test system: NL-RLuc virus
Test: Inhibition of HIV replication (NL-RLuc luciferase reporter virus in MT-2 cells)
Assay type: cell-based
Conditions: Human immunodeficiency virus 1, MT2, 120 h
Method in brief: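 The read-out is Renilla luciferase expressed by replication-competent NL-RLuc (nef partly replaced), measured 5 days after infection of MT-2 cells grown with compound dilutions in 10% FBS RPMI. Median effect equation gives EC50 from ≥2 runs; A ≤100 nM, B 100 nM–1 uM, C >1 uM.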

| SMILES | EC50 (read-out: Activity) | EC50 (read-out: EC50 μM) |
| --- | --- | --- |
| Cc1nc(CNC(=O)C(=O)N(C)C)c(-c2ccc(OCCc3ccc(F)cc3)cc2)c(N2CCC(C)(C)CC2)c1[C@H](OC(C)(C)C)C(=O)O [Example 105, (S)-2-(tert-Butoxy)-2-(6-((2-(dimethylamino)-2-oxoacetamido)methyl)-4-(4,4-dimethylpiperidin-1-yl)-5-(4-(4-fluorophenethoxy)phenyl)-2-methylpyridin-3-yl)acetic acid] | < 0.1 µM |  |
| CC(=O)NCc1nc(C)c([C@H](OC(C)(C)C)C(=O)O)c(N2CCC(C)(C)CC2)c1-c1ccc(OCCc2ccc(F)cc2)cc1 [Example 106, (S)-2-(6-(Acetamidomethyl)-4-(4,4-dimethylpiperidin-1-yl)-5-(4-(4-fluorophenethoxy)phenyl)-2-methylpyridin-3-yl)-2-(tert-butoxy)acetic acid] | < 0.1 µM |  |
| Cc1nc(CNC=O)c(-c2ccc(OCCc3ccc(F)cc3)cc2)c(N2CCC(C)(C)CC2)c1[C@H](OC(C)(C)C)C(=O)O [Example 107, (S)-2-(tert-Butoxy)-2-(4-(4,4-dimethylpiperidin-1-yl)-5-(4-(4-fluorophenethoxy)phenyl)-6-(formamidomethyl)-2-methylpyridin-3-yl)acetic acid] | < 0.1 µM |  |
| CCOCCOCc1nc(C)c(-c2ccc(OCCc3ccc(F)cc3)cc2)c(N2CCC(C)(C)CC2)c1[C@H](OC(C)(C)C)C(=O)O [Example 108, (S)-2-(tert-Butoxy)-2-(4-(4,4-dimethylpiperidin-1-yl)-2-((2-ethoxyethoxy)methyl)-5-(4-(4-fluorophenethoxy)phenyl)-6-methylpyridin-3-yl)acetic acid] | < 0.1 µM |  |
| Cc1nc(COCC2COC2)c([C@H](OC(C)(C)C)C(=O)O)c(N2CCC(C)(C)CC2)c1-c1ccc(OCCc2ccc(F)cc2)cc1 [Example 109, (S)-2-(tert-Butoxy)-2-(4-(4,4-dimethylpiperidin-1-yl)-5-(4-(4-fluorophenethoxy)phenyl)-6-methyl-2-((oxetan-3-ylmethoxy)methyl)pyridin-3-yl)acetic acid] | < 0.1 µM | 0.005 µM |
| CCOCCOCCOCc1nc(C)c(-c2ccc(OCCc3ccc(F)cc3)cc2)c(N2CCC(C)(C)CC2)c1[C@H](OC(C)(C)C)C(=O)O [Example 110, (S)-2-(tert-Butoxy)-2-(4-(4,4-dimethylpiperidin-1-yl)-2-((2-(2-ethoxyethoxy)ethoxy)methyl)-5-(4-(4-fluorophenethoxy)phenyl)-6-methylpyridin-3-yl)acetic acid] | < 0.1 µM |  |
| Cc1nc(COCCCOCc2ccccc2)c([C@H](OC(C)(C)C)C(=O)O)c(N2CCC(C)(C)CC2)c1-c1ccc(OCCc2ccc(F)cc2)cc1 [Example 111, (S)-2-(2-((3-(Benzyloxy)propoxy)methyl)-4-(4,4-dimethylpiperidin-1-yl)-5-(4-(4-fluorophenethoxy)phenyl)-6-methylpyridin-3-yl)-2-(tert-butoxy)acetic acid] | < 0.1 µM |  |
| Cc1nc(CN(C)C)c([C@H](OC(C)(C)C)C(=O)O)c(N2CCC(C)(C)CC2)c1-c1ccc(OCCc2ccc(F)cc2)cc1 [Example 112, (S)-2-(tert-Butoxy)-2-(2-((dimethylamino)methyl)-4-(4,4-dimethylpiperidin-1-yl)-5-(4-(4-fluorophenethoxy)phenyl)-6-methylpyridin-3-yl)acetic acid] | < 0.1 µM |  |
| Cc1cc(F)ccc1CN1CCc2cc(-c3c(CO)nc(C)c([C@H](OC(C)(C)C)C(=O)O)c3N3CCC(C)(C)CC3)ccc2C1 [Example 113, (S)-2-(tert-Butoxy)-2-(4-(4,4-dimethylpiperidin-1-yl)-5-(2-(4-fluoro-2-methylbenzyl)-1,2,3,4-tetrahydroisoquinolin-6-yl)-6-(hydroxymethyl)-2-methylpyridin-3-yl)acetic acid] | < 0.1 µM |  |
| CNCc1nc(C)c([C@H](OC(C)(C)C)C(=O)O)c(N2CCC(C)(C)CC2)c1-c1ccc2c(c1)CCN(Cc1ccc(F)cc1C)C2 [Example 114, (S)-2-(tert-Butoxy)-2-(4-(4,4-dimethylpiperidin-1-yl)-5-(2-(4-fluoro-2-methylbenzyl)-1,2,3,4-tetrahydroisoquinolin-6-yl)-2-methyl-6-((methylamino)methyl)pyridin-3-yl)acetic acid] | < 0.1 µM |  |
| Cc1cc(F)ccc1CN1CCc2cc(-c3c(CN(C)C)nc(C)c([C@H](OC(C)(C)C)C(=O)O)c3N3CCC(C)(C)CC3)ccc2C1 [Example 115, (S)-2-(tert-Butoxy)-2-(6-((dimethylamino)methyl)-4-(4,4-dimethylpiperidin-1-yl)-5-(2-(4-fluoro-2-methylbenzyl)-1,2,3,4-tetrahydroisoquinolin-6-yl)-2-methylpyridin-3-yl)acetic acid] | < 0.1 µM |  |
| COCCNCc1nc(C)c([C@H](OC(C)(C)C)C(=O)O)c(N2CCC(C)(C)CC2)c1-c1ccc2c(c1)CCN(Cc1ccc(F)cc1C)C2 [Example 116, (S)-2-(tert-Butoxy)-2-(4-(4,4-dimethylpiperidin-1-yl)-5-(2-(4-fluoro-2-methylbenzyl)-1,2,3,4-tetrahydroisoquinolin-6-yl)-6-(((2-methoxyethyl)amino)methyl)-2-methylpyridin-3-yl)acetic acid] | < 0.1 µM |  |
| Cc1cc(F)ccc1CN1CCc2cc(-c3c(CN4CCC4)nc(C)c([C@H](OC(C)(C)C)C(=O)O)c3N3CCC(C)(C)CC3)ccc2C1 [Example 117, (S)-2-(6-(Azetidin-1-ylmethyl)-4-(4,4-dimethylpiperidin-1-yl)-5-(2-(4-fluoro-2-methylbenzyl)-1,2,3,4-tetrahydroisoquinolin-6-yl)-2-methylpyridin-3-yl)-2-(tert-butoxy)acetic acid] | < 0.1 µM |  |
| Cc1cc(F)ccc1CN1CCc2cc(-c3c(CN4CCCC4)nc(C)c([C@H](OC(C)(C)C)C(=O)O)c3N3CCC(C)(C)CC3)ccc2C1 [Example 118, (S)-2-(tert-Butoxy)-2-(4-(4,4-dimethylpiperidin-1-yl)-5-(2-(4-fluoro-2-methylbenzyl)-1,2,3,4-tetrahydroisoquinolin-6-yl)-2-methyl-6-(pyrrolidin-1-ylmethyl)pyridin-3-yl)acetic acid] | < 0.1 µM | 0.002 µM |
| Cc1cc(F)ccc1CN1CCc2cc(-c3c(CN4CCCCC4)nc(C)c([C@H](OC(C)(C)C)C(=O)O)c3N3CCC(C)(C)CC3)ccc2C1 [Example 119, (S)-2-(tert-Butoxy)-2-(4-(4,4-dimethylpiperidin-1-yl)-5-(2-(4-fluoro-2-methylbenzyl)-1,2,3,4-tetrahydroisoquinolin-6-yl)-2-methyl-6-(piperidin-1-ylmethyl)pyridin-3-yl)acetic acid] | < 0.1 µM |  |
| Cc1cc(F)ccc1CN1CCc2cc(-c3c(CN4CCC(C)(C)CC4)nc(C)c([C@H](OC(C)(C)C)C(=O)O)c3N3CCC(C)(C)CC3)ccc2C1 [Example 120, (S)-2-(tert-Butoxy)-2-(4-(4,4-dimethylpiperidin-1-yl)-6-((4,4-dimethylpiperidin-1-yl)methyl)-5-(2-(4-fluoro-2-methylbenzyl)-1,2,3,4-tetrahydroisoquinolin-6-yl)-2-methylpyridin-3-yl)acetic acid] | < 0.1 µM |  |
| Cc1cc(F)ccc1CN1CCc2cc(-c3c(CN4CCOCC4)nc(C)c([C@H](OC(C)(C)C)C(=O)O)c3N3CCC(C)(C)CC3)ccc2C1 [Example 121, (S)-2-(tert-Butoxy)-2-(4-(4,4-dimethylpiperidin-1-yl)-5-(2-(4-fluoro-2-methylbenzyl)-1,2,3,4-tetrahydroisoquinolin-6-yl)-2-methyl-6-(morpholinomethyl)pyridin-3-yl)acetic acid] | < 0.1 µM |  |
| Cc1cc(F)ccc1CN1CCc2cc(-c3c(CN4CCSCC4)nc(C)c([C@H](OC(C)(C)C)C(=O)O)c3N3CCC(C)(C)CC3)ccc2C1 [Example 122, (S)-2-(tert-Butoxy)-2-(4-(4,4-dimethylpiperidin-1-yl)-5-(2-(4-fluoro-2-methylbenzyl)-1,2,3,4-tetrahydroisoquinolin-6-yl)-2-methyl-6-(thiomorpholinomethyl)pyridin-3-yl)acetic acid] | < 0.1 µM |  |
| Cc1cc(F)ccc1CN1CCc2cc(-c3c(CN4CCS(=O)(=O)CC4)nc(C)c([C@H](OC(C)(C)C)C(=O)O)c3N3CCC(C)(C)CC3)ccc2C1 [Example 123, (S)-2-(tert-Butoxy)-2-(4-(4,4-dimethylpiperidin-1-yl)-6-((1,1-dioxidothiomorpholino)methyl)-5-(2-(4-fluoro-2-methylbenzyl)-1,2,3,4-tetrahydroisoquinolin-6-yl)-2-methylpyridin-3-yl)acetic acid] | < 0.1 µM |  |
| Cc1cc(F)ccc1CN1CCc2cc(-c3c(CNCc4ccncc4)nc(C)c([C@H](OC(C)(C)C)C(=O)O)c3N3CCC(C)(C)CC3)ccc2C1 [Example 124, (S)-2-(tert-Butoxy)-2-(4-(4,4-dimethylpiperidin-1-yl)-5-(2-(4-fluoro-2-methylbenzyl)-1,2,3,4-tetrahydroisoquinolin-6-yl)-2-methyl-6-(((pyridin-4-ylmethyl)amino)methyl)pyridin-3-yl)acetic acid] | < 0.1 µM |  |
| CC[N+](CC)(CC)Cc1nc(C)c([C@H](OC(C)(C)C)C(=O)O)c(N2CCC(C)(C)CC2)c1-c1ccc2c(c1)CCN(Cc1ccc(F)cc1C)C2 [Example 125, (S)—N-((5-(tert-Butoxy(carboxy)methyl)-4-(4,4-dimethylpiperidin-1-yl)-3-(2-(4-fluoro-2-methylbenzyl)-1,2,3,4-tetrahydroisoquinolin-6-yl)-6-methylpyridin-2-yl)methyl)-N,N-diethylethanaminium] | < 0.1 µM | 0.016 µM |
| Cc1cc(F)ccc1CN1CCc2cc(-c3c(CNCc4cccnc4)nc(C)c([C@H](OC(C)(C)C)C(=O)O)c3N3CCC(C)(C)CC3)ccc2C1 [Example 126, (S)-2-(tert-Butoxy)-2-(4-(4,4-dimethylpiperidin-1-yl)-5-(2-(4-fluoro-2-methylbenzyl)-1,2,3,4-tetrahydroisoquinolin-6-yl)-2-methyl-6-(((pyridin-3-ylmethyl)amino)methyl)pyridin-3-yl)acetic acid] | < 0.1 µM |  |

From patent US10351546B2, “Pyridin-3-yl acetic acid derivatives as inhibitors of human immunodeficiency virus replication” (priority 2015, dated 2019)
